Test results reported in ChEMBL document CHEMBL1201862, “PubChem BioAssay data set” (2004).
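Growth conditions: 96-well plates. Treatment: test compound, 48 hours, 5 concentrations. Analysis: linear interpolation between bracketing concentrations; unreached endpoints set to highest concentration. Here, GI50 denotes the concentration required for 50% inhibition of growth.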 Activity calls are given as the source filed them. Cut-off read from the data, not from the text of the source: active = GI50 up to about 1.1 µM and inactive = higher.

Legend:
Assay in all cases: growth of human tumour cells (NCI), 48 h
HOP-92 = system: HOP-92
COLO 205 = system: COLO 205
K562 = system: K562
PC-3 = system: PC-3
NCI/ADR-RES = system: NCI/ADR-RES
TK-10 = system: TK-10
HT-29 = system: HT-29
SF-295 = system: SF-295
SK-MEL-2 = system: SK-MEL-2
LOX IMVI = system: LOX IMVI
NCI-H522 = system: NCI-H522
UACC-62 = system: UACC-62
HOP-62 = system: HOP-62
SF-539 = system: SF-539
Hs-578T = system: Hs-578T
SNB-19 = system: SNB-19
SN12C = system: SN12C
SK-MEL-28 = system: SK-MEL-28
SR = system: SR
NCI-H23 = system: NCI-H23

Row | SMILES | GI50 (HOP-92) | GI50 (COLO 205) | GI50 (K562) | GI50 (PC-3) | GI50 (NCI/ADR-RES) | GI50 (TK-10) | GI50 (HT-29) | GI50 (SF-295) | GI50 (SK-MEL-2) | GI50 (LOX IMVI) | GI50 (NCI-H522) | GI50 (UACC-62) | GI50 (HOP-62) | GI50 (SF-539) | GI50 (Hs-578T) | GI50 (SNB-19) | GI50 (SN12C) | GI50 (SK-MEL-28) | GI50 (SR) | GI50 (NCI-H23)
1 | CN1COCc2cc3cc4c(cc3nc21)OCCO4 | 38.8 µM (inactive) | > 100 µM (inactive) | > 100 µM (inactive) | 91.8 µM (inactive) | > 100 µM (inactive) | > 100 µM (inactive) | > 100 µM (inactive) | > 100 µM (inactive) | > 100 µM (inactive) | > 100 µM (inactive) | > 100 µM (inactive) | > 100 µM (inactive) | > 100 µM (inactive) | > 100 µM (inactive) | 0.0452 µM (active) | > 100 µM (inactive) | > 100 µM (inactive) | – | – | –
2 | CN(C)c1ccc(/C=C(/NC(=O)c2ccccc2)c2nc3cc(Cl)ccc3[nH]2)cc1 | > 100 µM (inactive) | 20.7 µM (inactive) | 19 µM (inactive) | – | – | 64.4 µM (inactive) | 28.6 µM (inactive) | 28 µM (inactive) | 37.1 µM (inactive) | 18.3 µM (inactive) | 22 µM (inactive) | 36 µM (inactive) | > 100 µM (inactive) | 55.8 µM (inactive) | – | 45.1 µM (inactive) | 47.9 µM (inactive) | 83.9 µM (inactive) | 30.3 µM (inactive) | 8.51 µM (inactive)
3 | CCC1(O)C(=O)OCc2c1cc1n(c2=O)Cc2cc3ccc(CO)cc3nc2-1 (configuration not stated) | 16.3 µM (inactive) | 14.2 µM (inactive) | 4.3 µM (inactive) | – | – | > 95.3 µM (inactive) | 9.35 µM (inactive) | 3.18 µM (inactive) | 18 µM (inactive) | 1.83 µM (inactive) | 1.64 µM (inactive) | 0.757 µM (active) | 0.566 µM (active) | 1.42 µM (inactive) | – | 1.93 µM (inactive) | 1.53 µM (inactive) | > 78.5 µM (inactive) | 0.0646 µM (active) | 2.07 µM (inactive)
4 | Cc1cccc2nc3n(c12)C(=O)c1ccccc1-3 | > 100 µM (inactive) | > 100 µM (inactive) | > 100 µM (inactive) | > 100 µM (inactive) | > 100 µM (inactive) | > 100 µM (inactive) | > 100 µM (inactive) | 49.9 µM (inactive) | > 100 µM (inactive) | – | > 100 µM (inactive) | > 100 µM (inactive) | > 100 µM (inactive) | > 100 µM (inactive) | – | > 100 µM (inactive) | > 100 µM (inactive) | > 100 µM (inactive) | > 100 µM (inactive) | > 100 µM (inactive)
5 | COc1cc2c(c(OC)c1)[C@H](C)N(Cc1ccccc1)C(C)C2 (some centres not stated) | – | 29.5 µM (inactive) | 21.9 µM (inactive) | > 100 µM (inactive) | – | 37.2 µM (inactive) | 9.57 µM (inactive) | 16.3 µM (inactive) | – | 30.1 µM (inactive) | > 100 µM (inactive) | 52.5 µM (inactive) | > 100 µM (inactive) | 16.6 µM (inactive) | 25.5 µM (inactive) | > 100 µM (inactive) | 35.2 µM (inactive) | 30.5 µM (inactive) | 25.8 µM (inactive) | 95.3 µM (inactive)
6 | CC(=O)C1C(=O)C(=O)N(c2ccc([N+](=O)[O-])cc2)C1=O (configuration not stated) | > 100 µM (inactive) | > 100 µM (inactive) | – | 52.7 µM (inactive) | > 100 µM (inactive) | > 100 µM (inactive) | > 100 µM (inactive) | > 100 µM (inactive) | 66.2 µM (inactive) | > 100 µM (inactive) | > 100 µM (inactive) | > 100 µM (inactive) | > 100 µM (inactive) | > 100 µM (inactive) | > 100 µM (inactive) | > 100 µM (inactive) | > 100 µM (inactive) | > 100 µM (inactive) | – | > 100 µM (inactive)
7 | COC1C2c3cc4c(cc3CC(C#N)(c3ccccc32)N1C(=O)c1ccccc1)OCO4 (configuration not stated) | > 100 µM (inactive) | > 100 µM (inactive) | 54.6 µM (inactive) | – | – | > 100 µM (inactive) | > 100 µM (inactive) | > 100 µM (inactive) | > 100 µM (inactive) | > 100 µM (inactive) | 87.3 µM (inactive) | 4.94 µM (inactive) | 48 µM (inactive) | > 100 µM (inactive) | – | > 100 µM (inactive) | > 100 µM (inactive) | > 100 µM (inactive) | 54.7 µM (inactive) | > 100 µM (inactive)
8 | COc1ccc(CCc2ccccc2CC(=O)O)cc1 | > 100 µM (inactive) | > 100 µM (inactive) | > 100 µM (inactive) | – | – | > 100 µM (inactive) | > 100 µM (inactive) | > 100 µM (inactive) | > 100 µM (inactive) | > 100 µM (inactive) | > 100 µM (inactive) | > 100 µM (inactive) | – | > 100 µM (inactive) | – | > 100 µM (inactive) | > 100 µM (inactive) | > 100 µM (inactive) | > 100 µM (inactive) | > 100 µM (inactive)
9 | O=C1C=CN(C2OC(CO)C(O)C2O)C(=O)C1 (configuration not stated) | – | 27.1 µM (inactive) | 1.58 µM (inactive) | 155 µM (inactive) | – | 2210 µM (inactive) | 32.3 µM (inactive) | – | – | 12 µM (inactive) | – | 50.4 µM (inactive) | 36.3 µM (inactive) | 91.6 µM (inactive) | 126 µM (inactive) | – | 10 µM (inactive) | – | 5.42 µM (inactive) | –
10 | O=c1[nH]c(NCc2cccnc2)nc2[nH]cnc12 | > 100 µM (inactive) | > 100 µM (inactive) | > 100 µM (inactive) | > 100 µM (inactive) | > 100 µM (inactive) | > 100 µM (inactive) | > 100 µM (inactive) | > 100 µM (inactive) | > 100 µM (inactive) | > 100 µM (inactive) | 41.4 µM (inactive) | > 100 µM (inactive) | > 100 µM (inactive) | > 100 µM (inactive) | > 100 µM (inactive) | > 100 µM (inactive) | > 100 µM (inactive) | – | – | > 100 µM (inactive)
11 | O=C(Cc1ccccc1)NS(=O)(=O)c1ccccc1 | > 100 µM (inactive) | > 100 µM (inactive) | > 100 µM (inactive) | – | – | > 100 µM (inactive) | > 100 µM (inactive) | > 100 µM (inactive) | > 100 µM (inactive) | > 100 µM (inactive) | > 100 µM (inactive) | > 100 µM (inactive) | > 100 µM (inactive) | > 100 µM (inactive) | – | > 100 µM (inactive) | > 100 µM (inactive) | > 100 µM (inactive) | > 100 µM (inactive) | > 100 µM (inactive)
12 | C[C@@H]1C2=CC[C@@]3(C)C(CCC3[C@H](C)[C@H]3C[C@@]4(C)O[C@@](c5cccnc5)(O3)OC4(C)C)[C@@H]2C2OC2[C@@]12CCC(=O)O2 (some centres not stated) | 26.8 µM (inactive) | 30 µM (inactive) | 27.5 µM (inactive) | – | – | 44.8 µM (inactive) | 34.6 µM (inactive) | 31.2 µM (inactive) | 25.2 µM (inactive) | 31.5 µM (inactive) | 29.3 µM (inactive) | 30.3 µM (inactive) | 66.7 µM (inactive) | 52.2 µM (inactive) | – | 49.1 µM (inactive) | 33 µM (inactive) | 90.8 µM (inactive) | 9.4 µM (inactive) | 34.2 µM (inactive)
13 | Nn1c(=S)[nH]nc(/C=C/c2c(O)ccc3ccccc23)c1=O | – | 7.18 µM (inactive) | 5.27 µM (inactive) | 11.1 µM (inactive) | 3.26 µM (inactive) | – | 4.03 µM (inactive) | 8.85 µM (inactive) | 13.3 µM (inactive) | 2.48 µM (inactive) | 3.32 µM (inactive) | 4.88 µM (inactive) | 11.6 µM (inactive) | 19.3 µM (inactive) | – | 21.8 µM (inactive) | – | 8.95 µM (inactive) | 4.67 µM (inactive) | 3.24 µM (inactive)
14 | O=C(Cn1c2ccc(Br)cc2c2nc3ccccc3nc21)NNC(=O)NC1CCCCC1 | – | 86.9 µM (inactive) | 47.1 µM (inactive) | 37.7 µM (inactive) | – | 42.8 µM (inactive) | – | 34.3 µM (inactive) | > 100 µM (inactive) | 41.4 µM (inactive) | 72.8 µM (inactive) | > 100 µM (inactive) | 27.7 µM (inactive) | > 100 µM (inactive) | 24.4 µM (inactive) | 89.1 µM (inactive) | 52.8 µM (inactive) | 45.2 µM (inactive) | 31 µM (inactive) | 61.4 µM (inactive)
15 | Cc1cc2c3c(ccc4[nH]cc(c43)CN2c2ccc(NS(C)(=O)=O)cc2)n1 | 24.5 µM (inactive) | > 100 µM (inactive) | 90.6 µM (inactive) | > 100 µM (inactive) | > 100 µM (inactive) | 26.2 µM (inactive) | > 100 µM (inactive) | 51.9 µM (inactive) | 37.7 µM (inactive) | > 100 µM (inactive) | 5.75 µM (inactive) | > 100 µM (inactive) | 19.6 µM (inactive) | – | > 100 µM (inactive) | 1.83 µM (inactive) | – | > 100 µM (inactive) | – | 20.8 µM (inactive)
16 | Clc1c(C(Cl)(Cl)Cl)nsc1N1CCCCC1 | – | 16.5 µM (inactive) | 19.1 µM (inactive) | 31 µM (inactive) | – | 31.6 µM (inactive) | 16 µM (inactive) | 22.3 µM (inactive) | – | 16.2 µM (inactive) | – | 22 µM (inactive) | 23 µM (inactive) | 25.3 µM (inactive) | 31.3 µM (inactive) | 20.7 µM (inactive) | 28 µM (inactive) | 33 µM (inactive) | 16.1 µM (inactive) | 14 µM (inactive)
